The record followed here is patent US4808589A, “Pyrimidone derivatives” (Smith Kline & French Laboratories Limited, priority 1982, dated 1989).

Molecules are shown by their SMILES.

The experiment deals with histamine H2 -receptors. Description: inhibition of histamine-stimulated secretion of gastric acid from lumen-perfused stomachs of rats anaesthetised with urethane. The class given is in vivo, rat. The conditions noted are these: i.v., lumen-perfused stomach of urethane-anaesthetised rats.

Regarding `Cc1ccc(Cc2cnc(CCSCc3csc(NC(=N)N)n3)[nH]c2=O)cn1.Cl.Cl.Cl.O` [Example 1, 2-[2-(2-guanidino-4-thiazolylmethylthio)ethyl]-5-(6-methyl-3-pyridylmethyl)-4-pyrimidone trihydrochloride hydrate], the “dose causing 50% inhibition of maximal acid secretion” value is “less than 1 micromole kg^-1”.

As for `Cc1ccc(Cc2cnc(CCSCc3ccc(CN(C)C)o3)[nH]c2=O)cn1` [Example 2, 2-[2-(5-dimethylaminomethyl-2-furanylmethylthio)ethyl]-5-(6-methyl-3-pyridyl-ylmethyl)-4-pyrimidone], the “dose causing 50% inhibition of maximal acid secretion” value was “less than 1 micromole kg^-1”.
